Test systems include SF-539 CNS; SF-268 CNS; NCI-H23 lung; OVCAR-8 ovarian; EKVX NSCLC; SK-MEL-2 melanoma; 786-0 renal; HL-60(TB) leukemia; UACC-257 melanoma; UACC-62 melanoma.
What all share (assay): inhibition of tumour cell growth, NCI panel, 48 h

Experimental findings from PubChem BioAssay (NCI) are described below.

Where “and” joins values, the source holds several entries; their conditions need not be identical. Equal entries are not always repeated.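 Each compound was tested at five concentrations against cells in 96-well plates for 48 hours. GI50: concentration for 50% inhibition of growth. At the TGI there is no net growth.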

Turning to `CCc1cccc(C)c1NC(=O)NS(=O)(=O)c1ccc(C)cc1`, the TGI in the test with SF-539 CNS, in the test with SF-268 CNS, in the test on NCI-H23 lung, in the test with OVCAR-8 ovarian, in the test on EKVX NSCLC and in the test on SK-MEL-2 melanoma was greater than 100 µM throughout. The TGI in the test with 786-0 renal, in the test with HL-60(TB) leukemia, with UACC-257 melanoma and in the test with UACC-62 melanoma was greater than 100 µM throughout.
Take `O=C1c2ccccc2C(=O)N1c1ccc(OCCN2CCCCC2)cc1`: the TGI in the test with SF-539 CNS, in the test on SF-268 CNS, with NCI-H23 lung, with OVCAR-8 ovarian, in the test with EKVX NSCLC and in the test with SK-MEL-2 melanoma was greater than 100 µM in each case. Also, the TGI in the test on 786-0 renal, with HL-60(TB) leukemia, in the test on UACC-257 melanoma and in the test on UACC-62 melanoma was greater than 100 µM in each case.
For `COc1cc(C2C(C#N)=C(N)OC3=C2C(=O)c2ccccc2C3=O)cc(OC)c1OC` (centres undefined), the GI50 in the test with SF-539 CNS is 0.344 µM; in the test on SF-268 CNS it was 6.58 µM; in the test with NCI-H23 lung it was 0.713 µM; with OVCAR-8 ovarian it was 1.12 µM; in the test with EKVX NSCLC it was 12.6 µM; in the test on SK-MEL-2 melanoma, 0.998 µM. Further, the GI50 in the test with 786-0 renal was 5.8 µM; with HL-60(TB) leukemia it was 2.28 µM; with UACC-257 melanoma, 1.18 µM; with UACC-62 melanoma, 0.396 µM. Further, the TGI with SF-539 CNS amounted to 4.56 µM; with SF-268 CNS it was 60.7 µM; with NCI-H23 lung, 4.34 µM; with OVCAR-8 ovarian it was 24.1 µM; in the test on EKVX NSCLC, 34 µM; in the test on SK-MEL-2 melanoma, 19.2 µM. Moreover, the TGI in the test with 786-0 renal was greater than 100 µM; in the test with HL-60(TB) leukemia, 6.77 µM; in the test on UACC-257 melanoma it was 13.3 µM; in the test on UACC-62 melanoma, 2.02 µM.
For the molecule `COc1ccc(C(=O)C=C2NCCN2)cc1`, the TGI in the test on SF-539 CNS, with SF-268 CNS, in the test on NCI-H23 lung, in the test on OVCAR-8 ovarian, in the test on EKVX NSCLC and with SK-MEL-2 melanoma was greater than 100 µM in each case. Also, the TGI in the test on 786-0 renal, in the test on HL-60(TB) leukemia, with UACC-257 melanoma and in the test on UACC-62 melanoma was greater than 100 µM throughout.
As to `Fc1ccccc1C1CC(C(c2ccccc2)c2ccccc2)=Nc2ccccc2S1` (centres undefined), the TGI stood at 50.4 µM in the test with SF-539 CNS; 26.1 µM with SF-268 CNS; 24.7 µM in the test with NCI-H23 lung; 48.5 µM with OVCAR-8 ovarian; 24.5 µM in the test on EKVX NSCLC; 21.6 µM in the test with SK-MEL-2 melanoma. In addition, the TGI in the test with 786-0 renal is 16.2 µM; in the test on HL-60(TB) leukemia it was 16.6 µM; with UACC-257 melanoma, 30.6 µM; in the test with UACC-62 melanoma, 18.7 µM.
For `CCNCCNc1cc(-c2ccc(F)cc2)c(C#N)c2nc3ccccc3n12`, the GI50 with SF-539 CNS is 1.7 µM; in the test on SF-268 CNS, 3.09 µM; with NCI-H23 lung, 13.7 µM; with OVCAR-8 ovarian, 4.52 µM; in the test with EKVX NSCLC it was 13.6 µM; in the test with SK-MEL-2 melanoma, 14.2 µM. For the same molecule, the GI50 with 786-0 renal was 1.77 µM; in the test on HL-60(TB) leukemia, 2.09 µM; with UACC-257 melanoma, 2.1 µM; with UACC-62 melanoma it was 1.9 µM. Besides, the TGI worked out at 3.24 µM in the test on SF-539 CNS; 12.8 µM in the test on SF-268 CNS; 29 µM in the test with NCI-H23 lung; 15.8 µM in the test with OVCAR-8 ovarian; 26.7 µM in the test on EKVX NSCLC; 28.3 µM with SK-MEL-2 melanoma. Further, the TGI was 3.45 µM in the test on 786-0 renal, 4.36 µM in the test on HL-60(TB) leukemia, 3.82 µM in the test on UACC-257 melanoma and 3.95 µM in the test with UACC-62 melanoma.
As for `CC#CC(=O)N1CCC[C@H]1c1nc(-c2ccc(C(=O)Nc3ccccn3)cc2)c2c(N)nccn12`, the GI50 with SF-539 CNS is greater than 100 µM; in the test on SF-268 CNS it was 52.7 µM; in the test with NCI-H23 lung, greater than 100 µM; in the test on OVCAR-8 ovarian, greater than 80.4 µM; in the test on EKVX NSCLC, 35 µM; with SK-MEL-2 melanoma it was greater than 88.4 µM. The GI50 is greater than 100 µM in the test with 786-0 renal, greater than 100 µM in the test on HL-60(TB) leukemia, 50.1 µM with UACC-257 melanoma and 34.8 µM with UACC-62 melanoma. The TGI with SF-539 CNS, in the test with SF-268 CNS, with NCI-H23 lung, with OVCAR-8 ovarian, with EKVX NSCLC and in the test on SK-MEL-2 melanoma was greater than 100 µM each time. The TGI in the test on 786-0 renal, with HL-60(TB) leukemia, in the test with UACC-257 melanoma and in the test on UACC-62 melanoma was greater than 100 µM in each case.
Consider `Cc1nc(C(N)=S)sc1C(=O)/C=C/c1cccc(O)c1`, for which the TGI in the test with SF-539 CNS, in the test on SF-268 CNS, in the test on NCI-H23 lung, in the test with OVCAR-8 ovarian, with EKVX NSCLC and in the test on SK-MEL-2 melanoma was greater than 100 µM in each case. The TGI with 786-0 renal, with HL-60(TB) leukemia, with UACC-257 melanoma and in the test with UACC-62 melanoma was greater than 100 µM in each case.
With `O=C1c2cc(CCl)sc2C(=O)c2ccsc21`, the TGI in the test on SF-539 CNS was 0.553 µM; in the test on SF-268 CNS it was 0.676 µM; with NCI-H23 lung, 0.136 µM; with OVCAR-8 ovarian it was 0.674 µM; with EKVX NSCLC, 2.74 µM; with SK-MEL-2 melanoma, 0.42 µM. Further, the TGI with 786-0 renal was determined as 2.88 µM; in the test with HL-60(TB) leukemia, 0.497 µM; in the test on UACC-257 melanoma it was 0.327 µM; with UACC-62 melanoma it was 0.319 µM.
Take `Cn1ccnc1C(=O)/C=C/c1ccc(C(=O)Nc2nc3ccccc3[nH]2)cc1`: the GI50 is 2.7 µM in the test on SF-539 CNS; 2.41 µM in the test with SF-268 CNS; 3.34 µM with NCI-H23 lung; 8.99 µM in the test on OVCAR-8 ovarian; 7.73 µM in the test with EKVX NSCLC; greater than 25 µM in the test with SK-MEL-2 melanoma. Further, the GI50 was 4.44 µM in the test on 786-0 renal, 7.87 µM with HL-60(TB) leukemia, greater than 25 µM with UACC-257 melanoma and 6.07 µM in the test on UACC-62 melanoma. Moreover, the TGI with SF-539 CNS is 18 µM; in the test on SF-268 CNS it was greater than 25 µM; with NCI-H23 lung it was greater than 25 µM; in the test on OVCAR-8 ovarian, greater than 25 µM; with EKVX NSCLC, greater than 25 µM; in the test on SK-MEL-2 melanoma it was greater than 25 µM. Further, the TGI in the test with 786-0 renal, with HL-60(TB) leukemia, with UACC-257 melanoma and in the test on UACC-62 melanoma was greater than 25 µM each time.
As for `C=C(C)[C@H]1CC/C(C)=C/CCC(C)C(=O)CC/C(CO)=C\[C@@H]1O` (some centres undefined), the GI50 in the test on SF-539 CNS is greater than 100 µM; in the test on SF-268 CNS, 88.9 µM; with NCI-H23 lung, greater than 100 µM; in the test on OVCAR-8 ovarian it was greater than 100 µM; in the test with EKVX NSCLC, 55.5 µM; with SK-MEL-2 melanoma, greater than 100 µM. Further, the GI50 in the test on 786-0 renal is greater than 100 µM; in the test on HL-60(TB) leukemia, 45.4 µM; with UACC-257 melanoma it was greater than 100 µM; in the test with UACC-62 melanoma, 67.6 µM. For the same molecule, the TGI in the test with SF-539 CNS, in the test on SF-268 CNS, with NCI-H23 lung, in the test with OVCAR-8 ovarian, with EKVX NSCLC and in the test with SK-MEL-2 melanoma was greater than 100 µM each time. For the same molecule, the TGI in the test on 786-0 renal, with HL-60(TB) leukemia, in the test on UACC-257 melanoma and with UACC-62 melanoma was greater than 100 µM each time.
Take `COc1ccc2c(c1)OC13Oc4cc(OC)ccc4C=C1CCCC3=C2`: the GI50 in the test with SF-539 CNS, in the test with SF-268 CNS, in the test with NCI-H23 lung, in the test with OVCAR-8 ovarian, in the test on EKVX NSCLC and in the test with SK-MEL-2 melanoma was greater than 100 µM each time. For the same molecule, the GI50 with 786-0 renal was greater than 100 µM; in the test with HL-60(TB) leukemia, greater than 100 µM; in the test on UACC-257 melanoma, greater than 100 µM; in the test with UACC-62 melanoma, 4.5 µM. In addition, the TGI in the test with SF-539 CNS, with SF-268 CNS, in the test with NCI-H23 lung, with OVCAR-8 ovarian, in the test on EKVX NSCLC and with SK-MEL-2 melanoma was greater than 100 µM in each case. The TGI in the test on 786-0 renal, in the test with HL-60(TB) leukemia, in the test with UACC-257 melanoma and with UACC-62 melanoma was greater than 100 µM in each case.
In the case of `CCOC(=O)C(C)(C)Oc1ccc2c(-c3ccc(Cl)cc3)cc(=O)oc2c1`, the TGI in the test on SF-539 CNS, in the test on SF-268 CNS, in the test on NCI-H23 lung, with OVCAR-8 ovarian, in the test with EKVX NSCLC and with SK-MEL-2 melanoma was greater than 100 µM each time. Moreover, the TGI in the test on 786-0 renal, in the test with HL-60(TB) leukemia, with UACC-257 melanoma and in the test on UACC-62 melanoma was greater than 100 µM each time.
For `O=[N+]([O-])c1ccc2c(N=Nc3c(O)ccc4ccccc34)c(O)cc(S(=O)(=O)O)c2c1`, the TGI with SF-539 CNS is 50.8 µM; in the test on SF-268 CNS it was 50 µM and > 100 µM; with NCI-H23 lung, 50 µM and > 100 µM; in the test with OVCAR-8 ovarian it was 50 µM and > 100 µM; in the test with EKVX NSCLC, greater than 100 µM; with SK-MEL-2 melanoma, 50 µM and > 100 µM. Besides, the TGI in the test with 786-0 renal is 50 µM and > 100 µM; in the test on HL-60(TB) leukemia, 14.9 µM and 58.6 µM; in the test on UACC-257 melanoma it was 50 µM and > 100 µM; in the test on UACC-62 melanoma, 50 µM and > 100 µM. In addition, the GI50 in the test on SF-268 CNS is 23.9 µM; with NCI-H23 lung, 49.8 µM; in the test with OVCAR-8 ovarian, 31.3 µM; in the test with EKVX NSCLC it was 39.4 µM; in the test with SK-MEL-2 melanoma, 40.9 µM; with 786-0 renal it was 30.7 µM. The values for the GI50 in the test on HL-60(TB) leukemia, with UACC-257 melanoma and with UACC-62 melanoma were 7.58 µM, 32 µM and 34.2 µM, respectively.
